# In PubChem BioAssay (NCI):
#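 Dose response: 5 concentrations. Exposure: 48 h. Format: 96-well plates. Endpoint: linear interpolation; highest concentration if not reached. At the TGI there is no net growth.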
# Experiments:
# Assay in all cases: growth of human tumour cells (NCI), 48 h
# MALME-3M melanoma = system: MALME-3M melanoma
# TK-10 renal = system: TK-10 renal
# SNB-19 CNS = system: SNB-19 CNS
# OVCAR-4 ovarian = system: OVCAR-4 ovarian
# SNB-78 CNS = system: SNB-78 CNS
# UACC-257 melanoma = system: UACC-257 melanoma
# HCT-15 colon = system: HCT-15 colon
# HL-60(TB) leukemia = system: HL-60(TB) leukemia
# ACHN renal = system: ACHN renal
# UO-31 renal = system: UO-31 renal
# HT29 colon = system: HT29 colon
# M14 melanoma = system: M14 melanoma
# LOX IMVI melanoma = system: LOX IMVI melanoma
# SF-295 CNS = system: SF-295 CNS
# NCI-H460 lung = system: NCI-H460 lung
# KM12 colon = system: KM12 colon
# NCI-H522 lung = system: NCI-H522 lung
# DLD-1 colon = system: DLD-1 colon
# DMS 273 small cell lung = system: DMS 273 small cell lung
# HOP-62 NSCLC = system: HOP-62 NSCLC
# OVCAR-5 ovarian = system: OVCAR-5 ovarian
# UACC-62 melanoma = system: UACC-62 melanoma
# HCC-2998 colon = system: HCC-2998 colon
# U251 CNS = system: U251 CNS
# COLO 205 colon = system: COLO 205 colon
# DMS 114 small cell lung = system: DMS 114 small cell lung
# NCI-H226 lung = system: NCI-H226 lung
# RPMI-8226 leukemia = system: RPMI-8226 leukemia
# OVCAR-3 ovarian = system: OVCAR-3 ovarian
# CAKI-1 renal = system: CAKI-1 renal
# 786-0 renal = system: 786-0 renal
# MOLT-4 leukemia = system: MOLT-4 leukemia
# SF-539 CNS = system: SF-539 CNS
# RXF-631 renal = system: RXF-631 renal
# NCI-H23 lung = system: NCI-H23 lung
# K-562 leukemia = system: K-562 leukemia
# SW-620 colon = system: SW-620 colon
# IGROV1 ovarian = system: IGROV1 ovarian
# CCRF-CEM leukemia = system: CCRF-CEM leukemia
# SK-MEL-28 melanoma = system: SK-MEL-28 melanoma
# LXFL 529 NSCLC = system: LXFL 529 NSCLC
# HOP-18 NSCLC = system: HOP-18 NSCLC
# KM20L2 colon = system: KM20L2 colon
# SK-OV-3 ovarian = system: SK-OV-3 ovarian
# EKVX NSCLC = system: EKVX NSCLC
# SK-MEL-2 melanoma = system: SK-MEL-2 melanoma
# XF 498 CNS = system: XF 498 CNS
# M19-MEL melanoma = system: M19-MEL melanoma
# SF-268 CNS = system: SF-268 CNS
# SK-MEL-5 melanoma = system: SK-MEL-5 melanoma
# A549 NSCLC = system: A549 NSCLC
# HOP-92 NSCLC = system: HOP-92 NSCLC
# A498 renal = system: A498 renal
# OVCAR-8 ovarian = system: OVCAR-8 ovarian
# SNB-75 CNS = system: SNB-75 CNS
# SN12C renal = system: SN12C renal
# SR leukemia = system: SR leukemia
# HCT-116 colon = system: HCT-116 colon
# RXF 393 renal = system: RXF 393 renal
compound,measurement,setting,value
O=[N+]([O-])c1ccc2nc3ccscc-3c2c1,TGI,MALME-3M melanoma,> 100 µM
same,TGI,TK-10 renal,> 100 µM
same,TGI,SNB-19 CNS,> 100 µM
same,TGI,OVCAR-4 ovarian,31.4 µM
same,TGI,SNB-78 CNS,90 µM
same,TGI,UACC-257 melanoma,> 100 µM
same,TGI,HCT-15 colon,> 100 µM
same,TGI,HL-60(TB) leukemia,30.4 µM
same,TGI,ACHN renal,> 100 µM
same,TGI,UO-31 renal,> 100 µM
same,TGI,HT29 colon,> 100 µM
same,TGI,M14 melanoma,32.4 µM
same,TGI,LOX IMVI melanoma,85.9 µM
same,TGI,SF-295 CNS,> 100 µM
same,TGI,NCI-H460 lung,49.4 µM
same,TGI,KM12 colon,83.6 µM
same,TGI,NCI-H522 lung,59.9 µM
same,TGI,DLD-1 colon,> 100 µM
same,TGI,DMS 273 small cell lung,> 100 µM
same,TGI,HOP-62 NSCLC,69.4 µM
same,TGI,OVCAR-5 ovarian,> 100 µM
same,TGI,UACC-62 melanoma,65.6 µM
same,TGI,HCC-2998 colon,34.1 µM
same,TGI,U251 CNS,85.3 µM
same,TGI,COLO 205 colon,34.8 µM
same,TGI,DMS 114 small cell lung,39.6 µM
same,TGI,NCI-H226 lung,> 100 µM
same,TGI,RPMI-8226 leukemia,44.1 µM
same,TGI,OVCAR-3 ovarian,> 100 µM
same,TGI,CAKI-1 renal,26.2 µM
same,TGI,786-0 renal,> 100 µM
same,TGI,MOLT-4 leukemia,> 100 µM
same,TGI,SF-539 CNS,50.4 µM
same,TGI,RXF-631 renal,> 100 µM
same,TGI,NCI-H23 lung,70.2 µM
same,TGI,K-562 leukemia,> 100 µM
same,TGI,SW-620 colon,> 100 µM
same,TGI,IGROV1 ovarian,> 100 µM
same,TGI,CCRF-CEM leukemia,> 100 µM
same,TGI,SK-MEL-28 melanoma,> 100 µM
same,TGI,LXFL 529 NSCLC,27.3 µM
same,TGI,HOP-18 NSCLC,> 100 µM
same,TGI,KM20L2 colon,94.9 µM
same,TGI,SK-OV-3 ovarian,86.3 µM
same,TGI,EKVX NSCLC,> 100 µM
same,TGI,SK-MEL-2 melanoma,77.7 µM
same,TGI,XF 498 CNS,87.2 µM
same,TGI,M19-MEL melanoma,61.8 µM
same,TGI,SF-268 CNS,> 100 µM
same,TGI,SK-MEL-5 melanoma,33.1 µM
same,TGI,A549 NSCLC,89.9 µM
same,TGI,HOP-92 NSCLC,25.7 µM
same,TGI,A498 renal,53.3 µM
COc1ccc(/C(=C\c2cc(OC)c(OC)c(OC)c2)C(=O)O)cc1,TGI,MALME-3M melanoma,> 100 µM
same,TGI,TK-10 renal,> 100 µM
same,TGI,SNB-19 CNS,> 100 µM
same,TGI,OVCAR-4 ovarian,> 100 µM
same,TGI,SNB-78 CNS,> 100 µM
same,TGI,OVCAR-8 ovarian,> 100 µM
same,TGI,UACC-257 melanoma,> 100 µM
same,TGI,HCT-15 colon,> 100 µM
same,TGI,HL-60(TB) leukemia,72.3 µM
same,TGI,ACHN renal,> 100 µM
same,TGI,SNB-75 CNS,75.1 µM
same,TGI,UO-31 renal,97.5 µM
same,TGI,HT29 colon,> 100 µM
same,TGI,M14 melanoma,> 100 µM
same,TGI,LOX IMVI melanoma,> 100 µM
same,TGI,SF-295 CNS,45.5 µM
same,TGI,NCI-H460 lung,> 100 µM
same,TGI,KM12 colon,85.6 µM
same,TGI,NCI-H522 lung,47.7 µM
same,TGI,DLD-1 colon,> 100 µM
same,TGI,DMS 273 small cell lung,> 100 µM
same,TGI,HOP-62 NSCLC,> 100 µM
same,TGI,UACC-62 melanoma,> 100 µM
same,TGI,U251 CNS,> 100 µM
same,TGI,COLO 205 colon,35.2 µM
same,TGI,DMS 114 small cell lung,67.2 µM
same,TGI,NCI-H226 lung,77.4 µM
same,TGI,RPMI-8226 leukemia,84.6 µM
same,TGI,OVCAR-3 ovarian,> 100 µM
same,TGI,SN12C renal,> 100 µM
same,TGI,CAKI-1 renal,> 100 µM
same,TGI,786-0 renal,> 100 µM
same,TGI,MOLT-4 leukemia,86.3 µM
same,TGI,SF-539 CNS,39 µM
same,TGI,SR leukemia,> 100 µM
same,TGI,K-562 leukemia,> 100 µM
same,TGI,SW-620 colon,> 100 µM
same,TGI,IGROV1 ovarian,> 100 µM
same,TGI,HCT-116 colon,> 100 µM
same,TGI,CCRF-CEM leukemia,> 100 µM
same,TGI,SK-MEL-28 melanoma,> 100 µM
same,TGI,LXFL 529 NSCLC,> 100 µM
same,TGI,HOP-18 NSCLC,> 100 µM
same,TGI,RXF 393 renal,39.7 µM
same,TGI,KM20L2 colon,45 µM
same,TGI,EKVX NSCLC,> 100 µM
same,TGI,XF 498 CNS,62.3 µM
same,TGI,M19-MEL melanoma,> 100 µM
same,TGI,SF-268 CNS,> 100 µM
same,TGI,SK-MEL-5 melanoma,41.7 µM
same,TGI,A549 NSCLC,> 100 µM
same,TGI,HOP-92 NSCLC,> 100 µM
same,TGI,A498 renal,53.3 µM
